Source: patent publication US9081736B2, “Modeling of mPGES-1 three-dimensional structures: applications in drug design and discovery” (The University of Kentucky Research Foundation, priority 2007, dated 2015)
Changes are numbered by the printed parent chain.

What was measured:
mPGES-1 = biological target: T1, mPGES-1 (Homo sapiens, UniProt O14684); settings: background statement; not selective for mPGES-1; cited from earlier work
T1 sequence (O14684 1-152): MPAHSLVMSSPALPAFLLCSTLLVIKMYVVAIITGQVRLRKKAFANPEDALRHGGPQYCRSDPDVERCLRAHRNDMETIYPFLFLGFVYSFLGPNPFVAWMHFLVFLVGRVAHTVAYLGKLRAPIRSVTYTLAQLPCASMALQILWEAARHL

mPGES-1 Q36E mutant = biological target: T2, mPGES-1 Q36E mutant (Homo sapiens, UniProt O14684, Q36E); assay: Activity assay, saturation kinetics for PGH2, Q36E mutant; type: biochemical; settings: 2.5 mM GSH, 1-500 μM PGH2, errors expected to be very large, read-out: Experimental KM, this work
T2 sequence (O14684 1-152 Q36E): T1 sequence (O14684 1-152) with Q36E
Method: (§1) Expression and Preparation for the Membrane Fraction of mPGES-1 and its Mutants in E. coli: The wild-type mPGES-1 and its mutant plasmids from XLI-Blue were transformed into M15 E. coli cells. Cells were grown in 500 ml TB media containing 100 μg/ml ampicillin and 25 μg/ml kanamycin at 37° C. with shaking at 270 rpm until OD reached 0.8. IPTG was added to a final concentration of 2 mM and cells were allowed to grow for additional 3 hours at 37° C. Cells were then harvested by centrifugation at 5000 g for 15 min at 4° C. […] The cells were broken by sonication, and then the cell lysate was cleared by centrifugation at 12,500 g for 10 min. […] Total protein concentration of the membrane fraction was determined by coomassie protein assay according to the manufacture's instruction (Bio-Rad) with BSA as a standard.
(§2) The reaction contents were 1:2500 diluted, from which 50 μl aliquot was used for quantification of […] concentration by EIA assay. […] The KM values of wild-type mPGES-1 and its mutants were calculated by using the GraphPad Prism 4.01 program.

wild-type mPGES-1 = biological target: T3, wild-type mPGES-1 (Homo sapiens, UniProt O14684); assay: Activity assay, saturation kinetics for PGH2, wild-type mPGES-1; type: biochemical; set-up: The specific oligonucleotide primers to full length of mPGES-1 were synthesized; made in house; host or cells: E. coli M15 (membrane fraction); settings: 2.5 mM GSH, 1-500 μM PGH2, on ice, read-out: Experimental KM, this work
T3 sequence (O14684 1-152): T1 sequence (O14684 1-152)
Method: as §1, §2

mPGES-1 Q134E mutant = biological target: T4, mPGES-1 Q134E mutant (Homo sapiens, UniProt O14684, Q134E); assay: Activity assay, saturation kinetics for PGH2, Q134E mutant; type: biochemical; settings: 2.5 mM GSH, 1-500 μM PGH2, errors expected to be very large, read-out: Experimental KM, this work
T4 sequence (O14684 1-152 Q134E): T1 sequence (O14684 1-152) with Q134E
Method: as §1, §2

| SMILES | Ability to inhibit mPGES-1 (mPGES-1) | Km (mPGES-1 Q36E mutant) | Km (wild-type mPGES-1) | Km (mPGES-1 Q134E mutant) |
| --- | --- | --- | --- | --- |
| CS(=O)(=O)Nc1ccc([N+](=O)[O-])cc1OC1CCCCC1 [NS-398] | able to inhibit mPGES-1 |  |  |  |
| CCCCC[C@H](O)/C=C/[C@@H]1[C@@H](C/C=C\CCCC(=O)O)[C@@H]2C[C@H]1OO2 [PGH2, prostaglandin H2] |  | ~1610 µM | 130 µM | ~734 µM |
